Patent US11471558B2, “Polypeptide and hyaluronic acid coatings” (INSTITUT NATIONAL DE LA SANTE ET DE LA RECHERCHE MEDICALE …, priority 2016, dated 2022)

Assays:
S. aureus [1] = conditions: Adv. Funct. Mater. 2013, 23, 4801-4809; cited from earlier work
S. aureus [2] = assay: Minimal inhibitory concentration of PAR in solution; assay type: cell-based; conditions: for times less active than PAR100 or PAR200 chains (from MICs in solution): per chain; for bacterial growth inhibition by PAR in solution: 1 μM
Procedure: Staphylococcus aureus (S. aureus, ATCC 25923) strains were used to assess the antibacterial properties of the test samples. Bacterial strain was cultured aerobically at 37° C. in a Mueller Hinton Broth (MHB) medium (Merck, Germany), pH 7.4. One colony was transferred to 10 mL of MHB medium and incubated at 37° C. for 20 h, to provide a final density of 10^6 CFU·mL^−1. To obtain bacteria in the mid logarithmic phase of growth, the absorbance at 620 nm of overnight culture was adjusted of 0.001.
In the following the inventors of the present invention wanted to further elucidate the underlying mechanism that confer to the coatings of the invention the strong inhibitory property on the surface and in the supernatant. As an example the (PAR30/HA)24 coating was further investigated. Accordingly, the minimal inhibitory concentration (MIC) of PAR in solution was determined using bacterial assay as described in Experimental Section. […] Finally for PAR at concentrations of 0.01 mg·mL^−1, inhibition of 100% was shown only for PAR30. Longer or shorter PAR chains (PAR10, PAR100 or PAR200) inhibits only partially (less than 40%) S. aureus growth. […] This reasoning is valid when PAR concentration values are expressed in mass (mg·mL^−1) thus it is related to the number of arginine monomers. However when the graph is plotted with concentrations in μM (and thus proportional in number of chains), which means that concentration is related to number of chains, different interpretation can be made. […] Moreover the MIC100 values obtained for PAR30, PAR100 or PAR200 ranges at very low concentrations (between 1 and 2 μM) which is remarkable when compared to well-known antimicrobial peptides (for example 30 μM for cateslytin with S. aureus, see Adv. Funct. Mater. 2013, 23, 4801-4809). PAR is thus a powerful candidate to fight against S. aureus.
FIG. 12: Graph with the Minimal inhibitory concentration (MIC100) of soluble PAR with 10, 30, 100 or 200 arginine residues. The Minimal inhibitory concentration (MIC100) leading to 100% inhibition of S. aureus were measured in solution. PAR with 10, 30, 100 or 200 arginine residues were tested.

[3] = concentrations up to 0.04 mg·mL−1

Substance	MIC with S. aureus (antimicrobial peptide, literature) (S. aureus [1]) [µM]	S. aureus growth inhibition by PAR in solution (S. aureus [2]; 0.01 mg·mL−1) [%]	S. aureus growth inhibition by PAR in solution (S. aureus [2]; 0.03 mg·mL−1)	MIC90 (S. aureus [2]; PAR in solution, S. aureus)	S. aureus growth inhibition by PAR in solution (S. aureus [2]; [3])	times less active than PAR100 or PAR200 chains (from MICs in solution) (S. aureus [2]) [times]	bacterial growth inhibition by PAR in solution (S. aureus [2])
cateslytin	30	–	–	–	–	–	–
poly-L-arginine [PAR30]	–	100	total inhibition	about 2 μM	totally inhibited	2	–
poly-L-arginine [PAR200]	–	–	about 45%	–	totally inhibited	–	totally inhibit
poly-L-arginine [PAR10]	–	–	total inhibition	–	totally inhibited	10	–
poly-L-arginine [PAR100]	–	–	total inhibition	–	totally inhibited	–	totally inhibit
